The source of these data is ChEMBL document CHEMBL5291721, “A preclinical secondary pharmacology resource illuminates target-adverse drug reaction associations of marketed drugs” (Nat Commun, 2023).

Test [1] deals with T1, Alpha-1A adrenergic receptor (Homo sapiens, UniProt P35348).
T1 sequence (P35348 whole entry): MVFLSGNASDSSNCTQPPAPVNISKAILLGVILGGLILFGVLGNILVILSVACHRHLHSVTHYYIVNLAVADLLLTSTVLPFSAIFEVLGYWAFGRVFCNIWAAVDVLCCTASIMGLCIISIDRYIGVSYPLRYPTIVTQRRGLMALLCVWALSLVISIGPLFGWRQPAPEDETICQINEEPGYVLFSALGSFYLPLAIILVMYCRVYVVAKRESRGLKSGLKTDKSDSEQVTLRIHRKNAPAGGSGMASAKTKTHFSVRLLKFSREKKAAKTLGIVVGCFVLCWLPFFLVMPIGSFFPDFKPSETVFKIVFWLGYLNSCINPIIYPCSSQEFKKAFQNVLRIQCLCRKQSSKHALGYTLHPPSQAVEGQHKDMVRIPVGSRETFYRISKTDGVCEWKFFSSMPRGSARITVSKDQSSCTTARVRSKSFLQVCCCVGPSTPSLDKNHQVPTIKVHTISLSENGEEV
It counts as functional, cell-based.

Test [2] deals with T1, Alpha-1A adrenergic receptor. In kind it is functional, cell-based. This is another data set of the same source.
Test [3] concerns the target T2, Prostaglandin G/H synthase 1 (Rattus norvegicus, UniProt Q63921). Further: assay procedure not described here.
T2 sequence (Q63921 whole entry): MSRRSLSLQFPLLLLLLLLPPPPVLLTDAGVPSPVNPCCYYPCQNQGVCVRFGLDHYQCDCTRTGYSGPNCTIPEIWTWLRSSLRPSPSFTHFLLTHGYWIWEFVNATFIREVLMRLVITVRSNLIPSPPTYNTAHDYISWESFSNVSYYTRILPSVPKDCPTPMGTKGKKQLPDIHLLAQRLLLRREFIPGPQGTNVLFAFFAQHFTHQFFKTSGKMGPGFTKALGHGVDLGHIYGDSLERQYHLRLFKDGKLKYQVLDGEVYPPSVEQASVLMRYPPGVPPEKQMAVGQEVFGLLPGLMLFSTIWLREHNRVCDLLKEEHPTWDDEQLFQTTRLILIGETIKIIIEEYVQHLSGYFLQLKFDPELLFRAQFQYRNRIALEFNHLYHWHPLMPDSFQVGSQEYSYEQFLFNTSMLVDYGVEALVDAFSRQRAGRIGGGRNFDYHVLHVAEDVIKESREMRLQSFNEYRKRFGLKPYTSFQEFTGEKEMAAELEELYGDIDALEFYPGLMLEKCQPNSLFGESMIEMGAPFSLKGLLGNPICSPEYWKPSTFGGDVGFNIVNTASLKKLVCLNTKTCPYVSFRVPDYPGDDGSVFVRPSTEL
It counts as functional.

The target of test [4] is T3, Alpha-2A adrenergic receptor (Homo sapiens, UniProt P08913).
T3 sequence (P08913 whole entry): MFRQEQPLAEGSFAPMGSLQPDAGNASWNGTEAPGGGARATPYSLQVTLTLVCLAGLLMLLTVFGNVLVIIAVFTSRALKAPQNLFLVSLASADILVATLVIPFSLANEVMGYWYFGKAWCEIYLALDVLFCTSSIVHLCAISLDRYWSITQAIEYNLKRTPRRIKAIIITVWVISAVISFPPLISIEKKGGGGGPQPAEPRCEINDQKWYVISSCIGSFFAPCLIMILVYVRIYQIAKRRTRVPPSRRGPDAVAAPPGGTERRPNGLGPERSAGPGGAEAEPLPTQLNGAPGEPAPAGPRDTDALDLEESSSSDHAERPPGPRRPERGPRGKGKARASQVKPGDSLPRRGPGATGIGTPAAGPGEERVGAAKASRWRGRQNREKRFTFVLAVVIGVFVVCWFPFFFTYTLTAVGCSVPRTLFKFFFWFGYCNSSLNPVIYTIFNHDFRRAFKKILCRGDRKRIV

Test [5] has as its target T4, Gamma-aminobutyric acid receptor subunit alpha-1/alpha-2/beta-2/gamma-2 (Homo sapiens, UniProt P14867+P47870+P18507+P47869). In kind it is functional, cell-based.
In test [6] the target is Sodium-dependent serotonin transporter (Homo sapiens, UniProt P31645). Further: assay procedure not described here.
Test [7] concerns the target T4, Gamma-aminobutyric acid receptor subunit alpha-1/alpha-2/beta-2/gamma-2. It counts as functional, cell-based. This is another data set of the same source.
The target of test [8] is T5, Muscarinic acetylcholine receptor M1 (Homo sapiens, UniProt P11229). Further: assay procedure not described here.
T5 sequence (P11229 whole entry): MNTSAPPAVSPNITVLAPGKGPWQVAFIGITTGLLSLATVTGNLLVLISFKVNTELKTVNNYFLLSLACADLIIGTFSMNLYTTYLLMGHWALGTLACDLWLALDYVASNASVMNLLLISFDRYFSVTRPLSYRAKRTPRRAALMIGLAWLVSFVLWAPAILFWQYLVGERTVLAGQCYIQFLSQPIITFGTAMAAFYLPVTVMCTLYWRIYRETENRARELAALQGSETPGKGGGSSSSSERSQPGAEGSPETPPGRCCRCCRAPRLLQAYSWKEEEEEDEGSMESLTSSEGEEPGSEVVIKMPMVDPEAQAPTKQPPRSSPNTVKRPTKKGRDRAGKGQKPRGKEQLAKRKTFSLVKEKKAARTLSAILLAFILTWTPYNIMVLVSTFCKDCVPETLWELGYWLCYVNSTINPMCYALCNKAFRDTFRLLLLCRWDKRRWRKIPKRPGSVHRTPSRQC

Broadly, the AC50 is the concentration at which the activity in the assay is half-maximal. The low end stands for greater potency, the high end for weaker potency.

T4 sequence (P14867 whole entry): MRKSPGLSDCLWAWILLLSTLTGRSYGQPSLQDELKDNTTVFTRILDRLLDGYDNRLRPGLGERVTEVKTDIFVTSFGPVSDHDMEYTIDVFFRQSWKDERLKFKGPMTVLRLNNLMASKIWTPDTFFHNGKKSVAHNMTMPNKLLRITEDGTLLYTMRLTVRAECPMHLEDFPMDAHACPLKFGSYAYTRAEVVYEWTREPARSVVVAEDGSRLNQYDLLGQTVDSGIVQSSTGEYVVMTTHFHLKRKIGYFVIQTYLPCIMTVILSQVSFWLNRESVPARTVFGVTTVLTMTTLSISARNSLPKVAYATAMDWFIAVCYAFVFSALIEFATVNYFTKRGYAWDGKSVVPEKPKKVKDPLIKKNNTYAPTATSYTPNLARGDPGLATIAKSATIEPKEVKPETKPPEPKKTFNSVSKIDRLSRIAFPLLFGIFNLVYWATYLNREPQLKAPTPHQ
T4 sequence (P47870 whole entry): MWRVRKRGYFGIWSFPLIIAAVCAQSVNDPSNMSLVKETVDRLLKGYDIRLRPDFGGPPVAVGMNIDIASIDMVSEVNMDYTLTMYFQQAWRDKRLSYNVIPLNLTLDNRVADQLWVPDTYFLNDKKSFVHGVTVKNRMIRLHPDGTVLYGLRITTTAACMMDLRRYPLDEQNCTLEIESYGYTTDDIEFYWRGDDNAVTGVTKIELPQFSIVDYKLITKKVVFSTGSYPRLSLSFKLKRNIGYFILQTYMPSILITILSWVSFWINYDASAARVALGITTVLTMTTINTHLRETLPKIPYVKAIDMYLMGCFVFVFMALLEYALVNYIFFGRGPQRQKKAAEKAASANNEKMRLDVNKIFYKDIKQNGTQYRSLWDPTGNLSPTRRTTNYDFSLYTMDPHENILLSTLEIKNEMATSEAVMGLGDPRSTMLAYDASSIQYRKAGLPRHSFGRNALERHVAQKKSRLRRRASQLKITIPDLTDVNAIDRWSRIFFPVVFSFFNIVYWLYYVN
T4 sequence (P18507 whole entry): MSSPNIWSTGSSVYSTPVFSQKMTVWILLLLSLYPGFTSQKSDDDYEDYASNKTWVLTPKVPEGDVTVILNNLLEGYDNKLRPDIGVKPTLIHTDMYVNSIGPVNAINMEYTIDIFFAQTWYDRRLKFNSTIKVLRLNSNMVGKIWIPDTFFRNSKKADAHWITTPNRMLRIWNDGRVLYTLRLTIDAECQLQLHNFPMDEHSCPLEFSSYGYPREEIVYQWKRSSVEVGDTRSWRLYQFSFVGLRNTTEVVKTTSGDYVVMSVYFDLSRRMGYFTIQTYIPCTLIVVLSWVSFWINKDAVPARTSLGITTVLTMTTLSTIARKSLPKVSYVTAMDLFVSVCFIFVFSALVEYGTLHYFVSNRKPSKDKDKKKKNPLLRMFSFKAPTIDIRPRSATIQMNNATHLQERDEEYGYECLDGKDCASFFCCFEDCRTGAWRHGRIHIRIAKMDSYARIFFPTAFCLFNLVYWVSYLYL
T4 sequence (P47869 whole entry): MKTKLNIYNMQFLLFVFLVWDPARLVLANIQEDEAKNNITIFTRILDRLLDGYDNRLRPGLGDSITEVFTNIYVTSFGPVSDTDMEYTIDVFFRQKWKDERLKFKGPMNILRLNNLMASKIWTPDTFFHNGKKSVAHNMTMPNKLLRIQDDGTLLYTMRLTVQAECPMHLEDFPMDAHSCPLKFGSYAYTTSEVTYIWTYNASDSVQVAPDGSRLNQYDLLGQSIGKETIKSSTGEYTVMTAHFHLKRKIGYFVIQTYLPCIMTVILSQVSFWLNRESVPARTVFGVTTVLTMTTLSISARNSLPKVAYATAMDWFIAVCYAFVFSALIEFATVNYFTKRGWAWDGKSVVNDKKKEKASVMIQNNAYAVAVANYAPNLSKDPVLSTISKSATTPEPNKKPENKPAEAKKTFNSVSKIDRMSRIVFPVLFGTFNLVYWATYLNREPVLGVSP
Chain of Sodium-dependent serotonin transporter (P31645 whole entry): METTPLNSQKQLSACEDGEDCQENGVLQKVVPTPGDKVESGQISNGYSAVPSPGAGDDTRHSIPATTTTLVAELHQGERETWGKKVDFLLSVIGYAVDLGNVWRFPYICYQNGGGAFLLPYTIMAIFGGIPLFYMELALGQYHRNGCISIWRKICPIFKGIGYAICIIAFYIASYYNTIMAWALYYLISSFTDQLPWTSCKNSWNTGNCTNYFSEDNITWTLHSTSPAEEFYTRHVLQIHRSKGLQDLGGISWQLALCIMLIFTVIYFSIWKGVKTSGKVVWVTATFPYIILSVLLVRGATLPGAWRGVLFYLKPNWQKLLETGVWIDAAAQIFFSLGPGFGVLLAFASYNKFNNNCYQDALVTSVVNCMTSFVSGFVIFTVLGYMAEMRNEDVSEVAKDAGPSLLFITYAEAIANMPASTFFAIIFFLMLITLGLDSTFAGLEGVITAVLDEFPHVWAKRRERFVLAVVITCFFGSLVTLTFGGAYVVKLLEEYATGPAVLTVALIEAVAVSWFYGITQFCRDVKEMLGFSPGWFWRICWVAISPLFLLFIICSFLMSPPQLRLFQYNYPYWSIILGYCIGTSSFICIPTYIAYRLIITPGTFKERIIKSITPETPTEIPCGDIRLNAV

Regarding `NCCCC(O)(P(=O)(O)O)P(=O)(O)O` [ALENDRONIC ACID], the half-maximal activity concentration (AC50) in test [1] and in test [2] was greater than 30 µM throughout.
In the case of `COC(=O)N[C@@H](C)CNc1nccc(-c2cn(C(C)C)nc2-c2cc(Cl)cc(NS(C)(=O)=O)c2F)n1` [ENCORAFENIB], the AC50 in test [3] was greater than 30 µM.
In test [4], `CC(C)CC(N(C)C)C1(c2ccc(Cl)cc2)CCC1` (stereo not drawn) [SIBUTRAMINE] registered an AC50 of 2.14 µM.
Regarding COLISTIN, the AC50 in test [5], in test [6], in test [7] and in test [8] was greater than 30 µM in each case.
